From US9487483B2, “Complement pathway modulators and uses thereof” (priority 2012, dated 2016)

Molecular target: Recombinant human factor D (Homo sapiens (Human), UniProt P00746)
Assay: biochemical
Assay type: biochemical
Details: Factor D inhibition data using Method 1; substrate Z-Lys-thiobenzyl, fluorescence readout; read-out: IC50
Experimental: Human Complement Factor D Assay: Method 1
Recombinant human factor D (expressed in E. coli and purified using standard methods) at 10 nM concentration is incubated with test compound at various concentrations for 1 hour at room temperature in 0.1 M Hepes buffer, pH 7.5, containing 1 mM MgCl2, 1 M NaCl and 0.05% CHAPS. […] IC50 values are calculated from percentage of inhibition of complement factor D-activity as a function of test compound concentration.

Chain of Recombinant human factor D (P00746 26-253): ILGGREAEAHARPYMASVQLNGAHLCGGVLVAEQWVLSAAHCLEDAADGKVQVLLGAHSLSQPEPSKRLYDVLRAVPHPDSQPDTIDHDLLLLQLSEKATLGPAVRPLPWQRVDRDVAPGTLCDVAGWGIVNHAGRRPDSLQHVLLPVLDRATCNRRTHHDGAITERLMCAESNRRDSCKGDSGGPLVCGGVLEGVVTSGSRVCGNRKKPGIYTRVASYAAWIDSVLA

Structure (SMILES)	IC50
NC(=O)n1cc(NC(=O)N2[C@@H]3C[C@@H]3C[C@H]2C(=O)N[C@@H]2CCC[C@H](C(F)(F)F)C2)c2ccccc21 [Example 26, (1R,3S,5R)-2-Aza-bicyclo[3.1.0]hexane-2,3-dicarboxylic acid 2-[(1-carbamoyl-1H-indol-3-yl)-amide] 3-[((1R,3S)-3-trifluoromethyl-cyclohexyl)-amide]]	26 nM
CC1(C)CCC[C@@H](NC(=O)[C@@H]2C[C@@H](F)CN2C(=O)Nc2cn(C(N)=O)c3ccccc23)C1 [Example 27, (2S,4R)-4-Fluoro-pyrrolidine-1,2-dicarboxylic acid 1-[(1-carbamoyl-1H-indol-3-yl)-amide] 2-[((R)-3,3-dimethyl-cyclohexyl)-amide]]	40 nM
NC(=O)c1nn(CC(=O)N2[C@@H]3C[C@@H]3C[C@H]2C(=O)NC2CCCC(O)(C(F)(F)F)C2)c2ccccc12 (stereo partly drawn) [Example 31, 1-{2-[(1R,3S,5R)-3-(3-Hydroxy-3-trifluoromethyl-cyclohexylcarbamoyl)-2-aza-bicyclo[3.1.0]hex-2-yl]-2-oxo-ethyl}-1H-indazole-3-carboxylic acid amide]	900 nM
CC(=O)c1nn(CC(=O)N2[C@@H]3C[C@@H]3C[C@H]2C(=O)NC2CCCC(OC(F)(F)F)C2)c2ccccc12 (stereo partly drawn) [Example 32, (1R,3S,5R)-2-[2-(3-Acetyl-indazol-1-yl)-acetyl]-2-aza-bicyclo[3.1.0]hexane-3-carboxylic acid (trans-3-trifluoromethoxy-cyclohexyl)-amide]	63 nM
NC(=O)c1nn(CC(=O)N2[C@@H]3C[C@@H]3C[C@H]2C(=O)NC2CCCC(O)(C(F)(F)F)C2)c2cnccc12 (stereo partly drawn) [Example 34, 1-{2-[(1R,3S,5R)-3-(3-Hydroxy-3-trifluoromethyl-cyclohexylcarbamoyl)-2-aza-bicyclo[3.1.0]hex-2-yl]-2-oxo-ethyl}-1H-pyrazolo[3,4-c]pyridine-3-carboxylic acid amide]	728 nM
NC(=O)c1nn(CC(=O)N2[C@@H]3C[C@@H]3C[C@H]2C(=O)NC2CCCCC2(F)F)c2cnccc12 (stereo partly drawn) [Example 35, 1-{2-[(1R,3S,5R)-3-(2,2-Difluoro-cyclohexylcarbamoyl)-2-aza-bicyclo[3.1.0]hex-2-yl]-2-oxo-ethyl}-1H-pyrazolo[3,4-c]pyridine-3-carboxylic acid amide]	774 nM
CC(=O)c1nn(CC(=O)N2[C@@H]3C[C@@H]3C[C@H]2C(=O)NC2CCCC=C2F)c2ccc(OCc3ncccn3)cc12 (stereo partly drawn) [Example 38, (1R,3S,5R)-2-{2-[3-acetyl-5-(pyrimidin-2-ylmethoxy)-indazol-1-yl]-acetyl}-2-aza-bicyclo[3.1.0]hexane-3-carboxylic acid (2-fluoro-cyclohex-2-enyl)-amide]	282 nM
CO[C@H]1CCC[C@@H](NC(=O)[C@@H]2C[C@H]3C[C@H]3N2C(=O)Cn2nc(C(N)=O)c3ccccc32)C1 [Example 46, 1-{2-[(1R,3S,5R)-3-((1R,3S)-3-Methoxy-cyclohexylcarbamoyl)-2-aza-bicyclo[3.1.0]hex-2-yl]-2-oxo-ethyl}-1H-indazole-3-carboxylic acid amide]	478 nM
NC(=O)c1nn(CC(=O)N2[C@@H]3C[C@@H]3C[C@H]2C(=O)N[C@@H]2CCC[C@H](C(F)(F)F)C2)c2ccccc12 [Example 49, 1-{2-Oxo-2-[(1R,3S,5R)-3-((1R,3S)-3-trifluoromethyl-cyclohexylcarbamoyl)-2-aza-bicyclo[3.1.0]hex-2-yl]ethyl}-1H-indazole-3-carboxylic acid amide]	29 nM
Cc1cc2c(C(N)=O)nn(CC(=O)N3[C@@H]4C[C@@H]4C[C@H]3C(=O)N[C@@H]3CCC[C@H](C(F)(F)F)C3)c2cn1 [Example 50, 5-Methyl-1-{2-oxo-2-[(1R,3S,5R)-3-((1R,3S)-3-trifluoromethyl-cyclohexylcarbamoyl)-2-aza-bicyclo[3.1.0]hex-2-yl]ethyl}-1H-pyrazolo[3,4-c]pyridine-3-carboxylic acid amide]	118 nM
C[C@H]1CCC[C@@H](NC(=O)[C@@H]2C[C@H]3C[C@H]3N2C(=O)Cn2nc(C(N)=O)c3ccncc32)C1 [Example 51, 1-{2-[(1R,3S,5R)-3-((1R,3S)-3-Methyl-cyclohexylcarbamoyl)-2-aza-bicyclo[3.1.0]hex-2-yl]-2-oxo-ethyl}-1H-pyrazolo[3,4-c]pyridine-3-carboxylic acid amide]	226 nM
NC(=O)c1nn(CC(=O)N2[C@@H]3C[C@@H]3C[C@H]2C(=O)NC2CCC(F)(F)C2)c2ccccc12 (stereo partly drawn) [Example 52, 1-{2-[(1R,3S,5R)-3-(3,3-Difluoro-cyclopentylcarbamoyl)-2-aza-bicyclo[3.1.0]hex-2-yl]-2-oxo-ethyl}-1H-indazole-3-carboxylic acid amide]	999 nM
CC1(C)CCC[C@H](NC(=O)[C@@H]2C[C@H]3C[C@H]3N2C(=O)Cn2nc(C(N)=O)c3ccccc32)C1 [Example 53, 1-{2-[(1R,3S,5R)-3-((S)-3,3-Dimethyl-cyclohexylcarbamoyl)-2-aza-bicyclo[3.1.0]hex-2-yl]-2-oxo-ethyl}-1H-indazole-3-carboxylic acid amide]	905 nM
CC1(C)CCC[C@@H](NC(=O)[C@@H]2C[C@H]3C[C@H]3N2C(=O)Cn2nc(C(N)=O)c3ccccc32)C1 [Example 54, 1-{2-[(1R,3S,5R)-3-((R)-3,3-Dimethyl-cyclohexylcarbamoyl)-2-aza-bicyclo[3.1.0]hex-2-yl]-2-oxo-ethyl}-1H-indazole-3-carboxylic acid amide]	57 nM
CC1(C)CCC[C@H](NC(=O)[C@@H]2C[C@H]3C[C@H]3N2C(=O)Cn2nc(C(N)=O)c3ccncc32)C1 [Example 55, 1-{2-[(1R,3S,5R)-3-((S)-3,3-Dimethyl-cyclohexylcarbamoyl)-2-aza-bicyclo[3.1.0]hex-2-yl]-2-oxo-ethyl}-1H-pyrazolo[3,4-c]pyridine-3-carboxylic acid amide]	2210 nM
CC1(C)CCC[C@@H](NC(=O)[C@@H]2C[C@H]3C[C@H]3N2C(=O)Cn2nc(C(N)=O)c3ccncc32)C1 [Example 56, 1-{2-[(1R,3S,5R)-3-((R)-3,3-Dimethyl-cyclohexylcarbamoyl)-2-aza-bicyclo[3.1.0]hex-2-yl]-2-oxo-ethyl}-1H-pyrazolo[3,4-c]pyridine-3-carboxylic acid amide]	37 nM
Cc1ccc2c(c1)c(C(N)=O)nn2CC(=O)N1[C@@H]2C[C@@H]2C[C@H]1C(=O)N[C@@H]1CCCC(C)(C)C1 [Example 59, 1-{2-[(1R,3S,5R)-3-((R)-3,3-Dimethyl-cyclohexylcarbamoyl)-2-aza-bicyclo[3.1.0]hex-2-yl]-2-oxo-ethyl}-5-methyl-1H-indazole-3-carboxylic acid amide]	43 nM

Same assay, conditions: read-out: IC50

Structure (SMILES)	IC50
Cc1cc2c(C(N)=O)nn(CC(=O)N3[C@@H]4C[C@@H]4C[C@H]3C(=O)NN3CCCC(C)(C)C3)c2cn1 [Example 29, 1{2-[(1R,3S,5R)-3-(3,3-Dimethyl-pipendin-1-ylcarbamoyl)-2-aza-bicyclo[3.1.0]hex-2-yl]-2-oxo-ethyl}-5-methyl-1H-pyrazolo[3,4-c] pyridine-3-carboxylic acid amide]	28 nM
CC(=O)c1nn(CC(=O)N2[C@@H]3C[C@@H]3C[C@H]2C(=O)NN2CCCC(C)(C)C2)c2ccc(OCc3ncccn3)cc12 [Example 30, (1R,3S,5R)-2-{2-[3-Acetyl-5-(pyrimidin-2-ylmethoxy)-indazol-1-yl]-acetyl}-2-aza-bicyclo[3.1.0] hexane-3-carboxylic acid (3,3-dimethyl-piperidin-1-yl)-amide]	10 nM
NC(=O)c1nn(CC(=O)N2[C@@H]3C[C@@H]3C[C@H]2C(=O)NC2CCCC(OC(F)(F)F)C2)c2ccccc12 (stereo partly drawn) [Example 33, 1-{2-Oxo-2-[(1R,3S,5R)-3-(trans-3-trifluoromethoxy-cyclohexylcarbamoyl)-2-aza-bicyclo[3.1.0]hex-2-yl]ethyl}-1H-indazole-3-carboxylic acid amide]	121 nM
NC(=O)c1nn(CC(=O)N2[C@@H]3C[C@@H]3C[C@H]2C(=O)N[C@@H]2CCC[C@H](C(F)(F)F)C2)c2cnccc12 [Example 41, 1-{2-Oxo-2-[(1R,3S,5R)-3-((1R,3S)-3-trifluoromethyl-cyclohexylcarbamoyl)-2-aza-bicyclo[3.1.0]hex-2-yl]-ethyl}-1H-pyrazolo[3,4-c]pyridine-3-carboxylic acid amide]	114 nM
CO[C@H]1CCC[C@H](NC(=O)[C@@H]2C[C@H]3C[C@H]3N2C(=O)Cn2nc(C(C)=O)c3ccccc32)C1 [Example 42, (1R,3S,5R)-2-[2-(3-Acetyl-indazol-1-yl)-acetyl]-2-aza-bicyclo[3.1.0]hexane-3-carboxylic acid ((1S,3S)-3-methoxy-cyclohexyl)-amide]	1070 nM
CO[C@@H]1CCC[C@@H](NC(=O)[C@@H]2C[C@H]3C[C@H]3N2C(=O)Cn2nc(C(C)=O)c3ccccc32)C1 [Example 43, (1R,3S,5R)-2-[2-(3-Acetyl-indazol-1-yl)-acetyl]-2-aza-bicyclo[3.1.0]hexane-3-carboxylic acid ((1R,3R)-3-methoxy-cyclohexyl)-amide]	323 nM
CO[C@@H]1CCC[C@H](NC(=O)[C@@H]2C[C@H]3C[C@H]3N2C(=O)Cn2nc(C(C)=O)c3ccccc32)C1 [Example 44, (1R,3S,5R)-2-[2-(3-Acetyl-indazol-1-yl)-acetyl]-2-aza-bicyclo[3.1.0]hexane-3-carboxylic acid ((1S,3R)-3-methoxy-cyclohexyl)-amide]	1880 nM
CO[C@H]1CCC[C@@H](NC(=O)[C@@H]2C[C@H]3C[C@H]3N2C(=O)Cn2nc(C(C)=O)c3ccccc32)C1 [Example 45, (1R,3S,5R)-2-[2-(3-Acetyl-indazol-1-yl)-acetyl]-2-aza-bicyclo[3.1.0]hexane-3-carboxylic acid ((1R,3S)-3-methoxy-cyclohexyl)-amide]	405 nM
C[C@H]1CCC[C@@H](NC(=O)[C@@H]2C[C@H]3C[C@H]3N2C(=O)Cn2nc(C(N)=O)c3ccccc32)C1 [Example 47, 1-{2-[(1R,3S,5R)-3-((1R,3S)-3-Methyl-cyclohexylcarbamoyl)-2-aza-bicyclo[3.1.0]hex-2-yl]-2-oxo-ethyl}-1H-indazole-3-carboxylic acid amide]	91 nM
C[C@@H]1CCC[C@H](NC(=O)[C@@H]2C[C@H]3C[C@H]3N2C(=O)Cn2nc(C(N)=O)c3ccccc32)C1 [Example 48, 1-{2-[(1R,3S,5R)-3-((1S,3R)-3-Methyl-cyclohexylcarbamoyl)-2-aza-bicyclo[3.1.0]hex-2-yl]-2-oxo-ethyl}-1H-indazole-3-carboxylic acid amide]	1320 nM
